Reference: patent US20260364184A1, “COMPOUND BASED ON OXOISOINDOLINYL-SUBSTITUTED TETRAHYDROPYRIMIDINE-DIONE AND USE THEREOF” (GLUETACS THERAPEUTICS (SHANGHAI) CO., LTD., priority 2023, published 2026)

Tests used:
Assay type in all cases: cell-based
CDK4 = target: T1, CDK4 (Homo sapiens, UniProt P11802+Q96SW2); assay: Western blot degradation of CDK4; conditions: MDA-MB-231 Cell; 24 hours
T1 construct: expression of target proteins in cells; endogenous in cells
Procedure: (§1) Conventional Western blot assay was performed to evaluate the effects of the compounds of the present disclosure on the expression of target proteins in cells.
(§2) (1) Cell Seeding and Protein Harvesting: The selected cells were processed according to the cell seeding procedure and protein harvesting procedure in Table II-2.
(§3) (2) To the collected supernatant, 5×SDS sample loading buffer was added, followed by denaturation at 95 °C for 5 minutes. The denatured samples were then separated by SDS-PAGE electrophoresis on a polyacrylamide gel. Proteins were transferred to a nitrocellulose membrane (0.45 μm NC membrane), blocked with blocking buffer at room temperature for 1 hour, and subjected to antibody incubation and development procedures according to the antibody manufacturer's instructions (Cell Signaling Technology).
(§4) Half-Maximal Degradation Concentration value (the drug concentration required for degrading proteins by 50%, abbreviated as DC50) reads method: comparing the grayscale values of Western blot bands from drug-treated samples with those from blank DMSO-treated controls, and identifying the drug concentration range at which the grayscale value is half that of the DMSO-treated control bands.
(§5) DC50 values can be calculated using ImageJ software to measure grayscale values of Western blot bands from drug-treated samples. The concentration-response curve is fitted to estimate the drug concentration corresponding to half the grayscale value.
(§6) Target protein remaining (%) refers to the percentage of target protein remaining in cells after treatment with protein degrader compounds.
(§7) Calculation method for target protein remaining (%): Use ImageJ software to measure grayscale values of Western blot bands from drug (protein degrader)-treated samples. The grayscale value of drug-treated bands is divided by that of internal control protein bands, and the resulting quotient is normalized to obtain the relative percentage of remaining target protein after protein degrader treatment.
(§8) Target protein degradation rate (%)=1−target protein remaining (%).

CDK6 = target: T2, CDK6 (Homo sapiens, UniProt Q00534+Q96SW2); assay: Western blot degradation of CDK6; conditions: MDA-MB-231 Cell; 24 hours
T2 construct: expression of target proteins in cells; endogenous in cells
Procedure: as §1, §2, §3, §4, §5, §6, §7, §8

[1] = Inhibition of RPMI-8226 cell proliferation (CellTiter luminescent viability); conditions: Homo sapiens; RPMI-8226; 10 nM; read-out: Inhibition Rate at 10 nM (%)
[2] = system: Human B-Cell Lymphoma Cells (RPMI-8226); assay: as above; conditions: RPMI-8226, 500 nM, read-out: Inhibition Rate at 500 nM (%)
[3] = system: Human lung cancer cell line (H292); assay: Inhibition of H292 cell proliferation (CellTiter luminescent viability); conditions: NCI-H292, Table IM1, CDK9 inhibitor-based, 96 hours; for inhibition at 0.01 µM: H292, 10 nM, read-out: Inhibition Rate at 10 nM (%); for inhibition at 0.5 µM: H292, 500 nM, read-out: Inhibition Rate at 500 nM (%)
Procedure: The tumor cells used herein were cultured in a cell culture medium listed in table 3 at 37 °C in an incubator with 5% CO2. Prior to experimentation, all cell lines used were correctly identified by STR profiling, and tested negative for mycoplasma contamination using a mycoplasma detection kit through routine screenings.
The IC50 values of the compounds of the present disclosure (including the compounds in Table 1, Table 2, and Examples 1-468) were determined using the CellTiter-Meiluncell Luminescent Cell Viability Assay Kit from Dalian Meilun Biotech Co., Ltd. The detailed procedure is as follows: Tumor cells were seeded in 96-well cell culture plates at the densities specified in Table 4. On the following day, the test compounds of the present disclosure were subjected to serial dilution. The dilution can be performed according to one of the following two methods: • (1) The first dilution method: The test compounds of the present disclosure (including the compounds in Table 1, Table 2, and Examples 1-468) were subjected to 5-fold serial dilutions starting from a highest concentration of 2000 μM, resulting in a total of 9 concentrations from high to low (2000, 400, 80, 16, 3.2, 0.64, 0.128, 0.0256, 0.00512 μM). Subsequently, 0.5 μL of the test compound dilution was transferred into the 96-well plate containing the cells, with each well containing 100 μL of cell culture medium. […] Into the 96-well plate, the diluted test compounds and corresponding detection reagents were added, resulting in final test compound concentrations of 500 nM and 10 nM, respectively. The experimental procedure is described below using the diluted 2 μM test compound as an example.
0.5 μL of the aforementioned diluted compound of the present disclosure (including the compounds in Table 1, Table 2, and Examples 1-468) was added to the seeded cells in 100 μL of medium, yielding a final test compound concentration of 10 nM. After the cells were treated with the compounds of the present disclosure for a specified period, the cell viability assay reagent was added to the culture medium according to the kit's instructions to determine cell viability. […] All controls were treated using the same procedure as the compounds of the present disclosure. The growth inhibition curves for the compounds of the present disclosure were plotted using Prism GraphPad software, and the IC50 values were calculated therefrom.

T1 sequence (P11802 whole entry): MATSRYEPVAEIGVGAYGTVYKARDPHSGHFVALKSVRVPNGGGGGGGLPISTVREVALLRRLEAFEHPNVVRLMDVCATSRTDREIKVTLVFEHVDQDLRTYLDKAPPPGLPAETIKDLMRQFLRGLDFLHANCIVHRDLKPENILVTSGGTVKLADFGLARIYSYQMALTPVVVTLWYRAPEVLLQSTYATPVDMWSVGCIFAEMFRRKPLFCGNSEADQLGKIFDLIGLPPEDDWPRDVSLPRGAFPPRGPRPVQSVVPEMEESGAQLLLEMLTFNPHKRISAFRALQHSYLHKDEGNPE
T1 sequence (Q96SW2 whole entry): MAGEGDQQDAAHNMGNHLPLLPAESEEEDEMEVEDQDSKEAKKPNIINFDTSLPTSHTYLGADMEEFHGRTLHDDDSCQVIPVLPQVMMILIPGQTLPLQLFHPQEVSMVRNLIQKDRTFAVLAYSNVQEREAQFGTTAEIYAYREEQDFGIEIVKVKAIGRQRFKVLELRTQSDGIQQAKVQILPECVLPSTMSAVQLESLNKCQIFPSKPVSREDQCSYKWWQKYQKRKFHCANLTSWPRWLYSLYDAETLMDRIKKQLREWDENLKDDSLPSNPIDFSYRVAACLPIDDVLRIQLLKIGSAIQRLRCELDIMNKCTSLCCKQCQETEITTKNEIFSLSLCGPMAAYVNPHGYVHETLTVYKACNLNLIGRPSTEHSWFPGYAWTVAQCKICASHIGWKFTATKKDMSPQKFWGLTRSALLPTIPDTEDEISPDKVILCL
T1 sequence (Q16531 whole entry partner): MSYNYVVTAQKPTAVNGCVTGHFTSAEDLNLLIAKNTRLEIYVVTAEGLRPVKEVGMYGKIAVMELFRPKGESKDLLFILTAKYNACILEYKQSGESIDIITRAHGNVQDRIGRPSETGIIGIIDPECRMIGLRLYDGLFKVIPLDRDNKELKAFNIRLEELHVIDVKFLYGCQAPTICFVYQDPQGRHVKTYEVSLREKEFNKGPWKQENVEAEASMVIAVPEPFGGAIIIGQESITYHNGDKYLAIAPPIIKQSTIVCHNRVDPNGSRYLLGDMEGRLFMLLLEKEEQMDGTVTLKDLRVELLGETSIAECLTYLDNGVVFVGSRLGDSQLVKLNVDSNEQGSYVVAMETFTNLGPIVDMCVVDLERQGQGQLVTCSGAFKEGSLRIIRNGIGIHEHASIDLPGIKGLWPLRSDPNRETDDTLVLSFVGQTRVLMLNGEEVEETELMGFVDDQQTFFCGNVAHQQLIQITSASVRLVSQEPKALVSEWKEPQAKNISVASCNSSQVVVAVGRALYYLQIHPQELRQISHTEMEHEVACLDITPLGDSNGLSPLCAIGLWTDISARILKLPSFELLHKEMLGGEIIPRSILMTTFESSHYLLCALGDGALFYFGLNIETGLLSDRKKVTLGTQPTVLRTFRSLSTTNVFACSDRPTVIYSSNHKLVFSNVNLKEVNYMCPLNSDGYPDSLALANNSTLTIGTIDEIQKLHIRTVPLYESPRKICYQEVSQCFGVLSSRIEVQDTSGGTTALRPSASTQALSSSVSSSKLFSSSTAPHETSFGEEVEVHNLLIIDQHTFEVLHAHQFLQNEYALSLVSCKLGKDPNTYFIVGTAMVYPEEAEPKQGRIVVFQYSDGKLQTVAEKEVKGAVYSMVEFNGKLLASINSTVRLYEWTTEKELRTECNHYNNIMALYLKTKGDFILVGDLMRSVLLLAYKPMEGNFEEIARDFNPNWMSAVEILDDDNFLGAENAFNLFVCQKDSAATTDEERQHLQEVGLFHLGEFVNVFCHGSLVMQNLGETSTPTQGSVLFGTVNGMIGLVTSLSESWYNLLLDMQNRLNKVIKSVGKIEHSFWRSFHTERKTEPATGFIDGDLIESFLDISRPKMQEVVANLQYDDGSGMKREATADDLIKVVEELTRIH
T2 sequence (Q00534 whole entry): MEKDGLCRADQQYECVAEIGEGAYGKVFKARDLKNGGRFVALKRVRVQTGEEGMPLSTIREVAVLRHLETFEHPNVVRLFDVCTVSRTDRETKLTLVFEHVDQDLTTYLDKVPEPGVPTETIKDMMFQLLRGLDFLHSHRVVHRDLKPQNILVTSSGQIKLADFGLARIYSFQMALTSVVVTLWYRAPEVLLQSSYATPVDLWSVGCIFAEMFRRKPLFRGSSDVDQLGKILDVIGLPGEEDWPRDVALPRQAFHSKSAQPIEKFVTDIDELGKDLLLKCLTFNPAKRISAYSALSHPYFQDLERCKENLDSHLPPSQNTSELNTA
T2 sequence (Q96SW2 whole entry): as the sequence (Q96SW2 whole entry) above
T2 sequence (Q16531 whole entry partner): as the sequence (Q16531 whole entry partner) above

Row | SMILES | Degradation of substrate protein CDK6 (substrate protein remaining %) (CDK6) | Degradation of substrate protein CDK4 (substrate protein remaining %) (CDK4) | inhibition at 0.01 µM [1] [%] | inhibition at 0.5 µM [2] [%] | inhibition at 0.01 µM [3] [%] | inhibition at 0.5 µM [3] [%]
1 | CN(C)C(=O)c1cc2cnc(Nc3ccc(N4CCC(N(C)Cc5ccc6c(c5)C(=O)N(N5CCC(=O)NC5=O)C6=O)CC4)cn3)nc2n1C1CCCC1 [GT-06488, 7-cyclopentyl-2-((5-(4-(((2-(2,4-dioxotetrahydropyrimidin-1(2H)-yl)-1,3-dioxoisoindolin-5-yl)methyl)(methyl)amino)piperidin-1-yl)pyridin-2-yl)amino)-N,N-dimethyl-7H-pyrrolo[2,3-d]pyrimidine-6-carboxamide] | A (0%≤substrate protein remaining %≤80%) | B (80%<substrate protein remaining %≤100%) | – | – | – | –
2 | CN(C)C(=O)c1cc2cnc(Nc3ccc(N4CCC(CN5CC6CCC5CN6c5ccc6c(c5)C(=O)N(N5CCC(=O)NC5=O)C6=O)CC4)cn3)nc2n1C1CCCC1 (stereo not drawn) [GT-05831, 7-cyclopentyl-2-((5-(4-((5-(2-(2,4-dioxotetrahydropyrimidin-1(2H)-yl)-1,3-dioxoisoindolin-5-yl)-2,5-diazabicyclo[2.2.2]octan-2-yl)methyl)piperidin-1-yl)pyridin-2-yl)amino)-N,N-dimethyl-7H-pyrrolo[2,3-d]pyrimidine-6-carboxamide] | A (0%≤substrate protein remaining %≤80%) | B (80%<substrate protein remaining %≤100%) | – | – | – | –
3 | CN(C)C(=O)c1cc2cnc(Nc3ccc(N4CCC(CN5CC6CCC(C5)N6c5ccc6c(c5)C(=O)N(N5CCC(=O)NC5=O)C6=O)CC4)cn3)nc2n1C1CCCC1 [GT-05200, 7-cyclopentyl-2-((5-(4-((8-(2-(2,4-dioxotetrahydropyrimidin-1(2H)-yl)-1,3-dioxoisoindolin-5-yl)-3,8-diazabicyclo[3.2.1]octan-3-yl)methyl)piperidin-1-yl)pyridin-2-yl)amino)-N,N-dimethyl-7H-pyrrolo[2,3-d]pyrimidine-6-carboxamide] | A (0%≤substrate protein remaining %≤80%) | B (80%<substrate protein remaining %≤100%) | – | – | – | –
4 | Cc1nc2c(F)cc(-c3nc(Nc4ccc(N5CCC(N(C)Cc6ccc7c(c6)C(=O)N(N6CCC(=O)NC6=O)C7=O)CC5)cn4)ncc3F)cc2n1C(C)C [GT-06732, 2-(2,4-dioxotetrahydropyrimidin-1(2H)-yl)-5-(((1-(6-((5-fluoro-4-(4-fluoro-1-isopropyl-2-methyl-1H-benzo[d]imidazol-6-yl)pyrimidin-2-yl)amino)pyridin-3-yl)piperidin-4-yl)(methyl)amino)methyl)isoindoline-1,3-dione] | A (0%≤substrate protein remaining %≤80%) | B (80%<substrate protein remaining %≤100%) | – | – | – | –
5 | O=C1CCN(N2C(=O)c3ccc(N4CCC(CN5CCN(c6ccc(CC(=O)Nc7cc(C8CCC8)[nH]n7)cc6)CC5)CC4)cc3C2=O)C(=O)N1 [GT-08350, N-(5-cyclobutyl-1H-pyrazol-3-yl)-2-(4-(4-((1-(2-(2,4-dioxotetrahydropyrimidin-1(2H)-yl)-1,3-dioxoisoindolin-5-yl)piperidin-4-yl)methyl)piperazin-1-yl)phenyl)acetamide] | – | – | 10 to 20 | 20 to 30 | 40 to 50 | 40 to 50
6 | Cc1nc2c(F)cc(-c3nc(Nc4ccc(N5CCN(Cc6ccc7c(c6)C(=O)N(N6CCC(=O)NC6=O)C7=O)CC5)cn4)ncc3F)cc2n1C(C)C [GT-06673, 2-(2,4-dioxotetrahydropyrimidin-1(2H)-yl)-5-((4-(6-((5-fluoro-4-(4-fluoro-1-isopropyl-2-methyl-1H-benzo[d]imidazol-6-yl)pyrimidin-2-yl)amino)pyridin-3-yl)piperazin-1-yl)methyl)isoindoline-1,3-dione] | A (0%≤substrate protein remaining %≤80%) | B (80%<substrate protein remaining %≤100%) | – | – | – | –
7 | N#CC1(CNc2nc(-c3cc(NC4CCN(CC5CCN(c6ccc7c(c6)C(=O)N(N6CCC(=O)NC6=O)C7=O)CC5)CC4)ncc3Cl)cs2)CCOCC1 [GT-04719, 4-(((4-(5-chloro-2-((1-((1-(2-(2,4-dioxotetrahydropyrimidin-1(2H)-yl)-1,3-dioxoisoindolin-5-yl)piperidin-4-yl)methyl)piperidin-4-yl)amino)pyridin-4-yl)thiazol-2-yl)amino)methyl)tetrahydro-2H-pyran-4-carbonitrile] | – | – | 10 to 20 | 20 to 30 | 5 to 10 | 15 to 20

More lines, main results first:

Row | Degradation of substrate protein CDK6 (substrate protein remaining %) (CDK6) | SMILES | Degradation of substrate protein CDK4 (substrate protein remaining %) (CDK4) | inhibition at 0.01 µM [1] [%] | inhibition at 0.5 µM [2] [%] | inhibition at 0.01 µM [3] [%] | inhibition at 0.5 µM [3] [%]
8 | A (0%≤substrate protein remaining %≤80%) | CN(C)C(=O)c1cc2cnc(Nc3ccc(N4CCC(CN5C6CC5CN(c5ccc7c(c5)C(=O)N(N5CCC(=O)NC5=O)C7=O)C6)CC4)cn3)nc2n1C1CCCC1 [GT-05820, 7-cyclopentyl-2-((5-(4-((3-(2-(2,4-dioxotetrahydropyrimidin-1(2H)-yl)-1,3-dioxoisoindolin-5-yl)-3,6-diazabicyclo[3.1.1]heptan-6-yl)methyl)piperidin-1-yl)pyridin-2-yl)amino)-N,N-dimethyl-7H-pyrrolo[2,3-d]pyrimidine-6-carboxamide] | B (80%<substrate protein remaining %≤100%) | – | – | – | –
9 | A (0%≤substrate protein remaining %≤80%) | CN(C)C(=O)c1cc2cnc(Nc3ccc(N4CCC(CN5CCN(C6CCN(c7ccc8c(c7)C(=O)N(N7CCC(=O)NC7=O)C8=O)CC6(F)F)CC5)CC4)cn3)nc2n1C1CCCC1 (stereo not drawn) [GT-05206, 7-cyclopentyl-2-((5-(4-((4-(1-(2-(2,4-dioxotetrahydropyrimidin-1(2H)-yl)-1,3-dioxoisoindolin-5-yl)-3,3-difluoropiperidin-4-yl)piperazin-1-yl)methyl)piperidin-1-yl)pyridin-2-yl)amino)-N,N-dimethyl-7H-pyrrolo[2,3-d]pyrimidine-6-carboxamide] | B (80%<substrate protein remaining %≤100%) | – | – | – | –
10 | A (0%≤substrate protein remaining %≤80%) | CN(C)C(=O)c1cc2cnc(Nc3ccc(N4CCN(CC5CCN(c6ccc7c(c6)C(=O)N(N6CCC(=O)NC6=O)C7=O)CC5)CC4)cn3)nc2n1C1CCCC1 [GT-06337, 7-cyclopentyl-2-((5-(4-((1-(2-(2,4-dioxotetrahydropyrimidin-1(2H)-yl)-1,3-dioxoisoindolin-5-yl)piperidin-4-yl)methyl)piperazin-1-yl)pyridin-2-yl)amino)-N,N-dimethyl-7H-pyrrolo[2,3-d]pyrimidine-6-carboxamide] | B (80%<substrate protein remaining %≤100%) | – | – | – | –
